# Entries after “also recorded” stand apart in the source; their conditions may differ. * marks the point of attachment. AMC = Cc1cc(=O)oc2cc(N*)ccc12; Boc = CC(C)(C)OC(=O)*
# What was measured:
# [1] = system: Cedar Pollen (Cedar Pollen-Cj Japanese Cedar); experiment: Measurement of cedar pollen with protease substrates, fluorescence (Example 7); format: biochemical; details: substrate 10 mM in DMSO, 37° C. 15 minutes, excitation 355 nm
# Method: • Cedar Pollen (Cedar Pollen-Cj Japanese Cedar) (produced by LSL) • Leu-MCA and Boc-Val-Leu-Lys-MCA as protease substrates (both of them were produced by PEPTIDE INSTITUTE INC)
# Cedar pollen was suspended in phosphate buffer to a concentration of 1 mg/ml and the suspension was diluted with phosphate buffer as appropriate. Each of the dilutions in an amount of 45 μL was mixed with 5 μL of the substrate dissolved in DMSO to a concentration of 10 mM, and the resulting mixture was incubated at 37° C. for 15 minutes. Using a plate reader, excitation was carried out at a wavelength of 355 nm, and fluorescence intensity at 460 nm was measured.
# [2] = system: Mite Extract Df (Mite dermatophagoides farinae); experiment: Protease substrate cleavage by mite extract, fluorescence (Example 9); format: biochemical; details: substrate 10 mM in DMSO, room temperature overnight, excitation 355 nm
# Method: • Mite Extract Df (Mite dermatophagoides farinae) (obtained by extracting mites with phosphate buffer and freeze-drying the soluble fragment) (produced by LSL) • Protease Substrates (Met-MCA, Boc-Gln-Ala-Arg-MCA, Boc-Val-Leu-Lys-MCA, Bz-Arg-MCA, Glt-Ala-Ala-Phe-MCA (Glt means glutaryl) (All of them were produced by PEPTIDE INSTITUTE INC)
# In phosphate buffer or water, mites were suspended to a concentration of 1 mg/ml, and the suspension was diluted with phosphate buffer as appropriate. Each of the dilutions in an amount of 50 μL was mixed with 5 μL of the substrate dissolved in DMSO to a concentration of 10 mM, and the resulting mixture was incubated at room temperature overnight. Using a plate reader, excitation was carried out at a wavelength of 355 nm, and fluorescence intensity at 460 nm was measured.
# Cedar Pollen Extract = experiment: Quantification of cedar pollen extract with protease substrates, fluorescence (Example 8); format: biochemical, Japanese Cedar; details: substrate 10 mM in DMSO, 37° C. 15 minutes, excitation 355 nm
# Method: • Cedar Pollen Extract (Cedar Pollen Extrace-CJ) (produced by LSL) • Leu-MCA and Boc-Val-Leu-Lys-MCA as protease substrates (both of them were produced by PEPTIDE INSTITUTE INC)
# The cedar pollen extract was the centrifugation supernatant obtained by stirring cedar pollen in 0.125 M NaHCO3 (pH8) for 16 hours, and lightly homogenizing the mixture, followed by centrifugation. The extract was suspended in 5 mM borate buffer (pH8.0) containing 0.9% NaCl to a concentration of 666 μg/ml, and the resulting mixture was diluted with phosphate buffer as appropriate. Each of the samples in an amount of 45 μL was mixed with 5 μL of the substrate dissolved in DMSO to a concentration of 10 mM, and the resulting mixture was incubated at 37° C. for 15 minutes. Using a plate reader, excitation was carried out at a wavelength of 355 nm, and fluorescence intensity at 460 nm was measured.
Compound,reaction of substrate with cedar pollen (fluorescence intensity at 460 nm) [1],cleavage of substrate by mite antigen (fluorescence intensity at 460 nm) [2],reaction of substrate with cedar pollen extract (fluorescence intensity at 460 nm) (Cedar Pollen Extract)
Cl.NC(N)=NCCCC(NC(=O)c1ccccc1)C(=O)Nc1ccc([N+](=O)[O-])cc1 (racemic) [Bz-DL-Arg-pNA.HCl],reacts,–,–
Cc1cc(=O)oc2cc(NC(=O)[C@H](CCCNC(=N)N)NC(=O)c3ccccc3)ccc12 [Bz-Arg-MCA],–,not substantially cleaved,–
Glt-Ala-Ala-Phe-MCA,–,not substantially cleaved,–
CSCCC(N)C(=O)Nc1ccc2c(C)cc(=O)oc2c1 (stereo not drawn) [Met-MCA],–,effectively measured,–
Boc-Val-Leu-Lys-{AMC},fluorescence was not dependent on the amount of cedar pollen; also recorded: does not react,effectively measured; also recorded: reacts,fluorescence was not dependent on the amount of cedar pollen
Boc-Gln-Ala-Arg-{AMC},–,effectively measured,–
Cc1cc(=O)oc2cc(NC(=O)C(N)CC(C)C)ccc12 (stereo not drawn) [Leu-MCA],reacts,–,–
